Source: patent US20080293679A1, “Use of carotenoids and/or carotenoid derivatives/analogs for reduction/inhibition of certain negative effects of COX inhibitors” (priority 2005, published 2008)
Marks after values point to notes of the source that are not given here.

Experiments:
[1] = test system: superoxide anion generation from phorbol-ester (PMA)-stimulated PMNs; experiment: Direct superoxide anion scavenging by EPR spectroscopy (DEPMPO spin trap), isolated human neutrophil assay; assay type: cell-based
Protocol: Leukocyte Isolation and Preparation. Human polymorphonuclear leukocytes (PMNs) were isolated from freshly sampled venous blood of a single volunteer by Percoll density gradient centrifugation as described previously. Briefly, each 10 mL of whole blood was mixed with 0.8 mL of 0.1 M EDTA and 25 mL of saline. The diluted blood was then layered over 9 mL of Percoll at a specific density of 1.080 g/mL. After centrifugation at 400×g for 20 min at 20° C., the plasma, mononuclear cell, and Percoll layers were removed. Erythrocytes were subsequently lysed by addition of 18 mL of ice-cold water for 30 s, followed by 2 mL of 10×PIPES buffer (25 mM PIPES, 110 mM NaCl, and 5 mM KCl, titrated to pH 7.4 with NaOH). Cells were then pelleted at 4° C., the supernatant was decanted, and the procedure was repeated. After the second hypotonic cell lysis, cells were washed twice with PAG buffer [PIPES buffer containing 0.003% human serum albumin (HSA) and 0.1% glucose]. Afterward, PMNs were counted by light microscopy on a hemocytometer. The isolation yielded PMNs with a purity of >95%. The final pellet was then suspended in PAG-CM buffer (PAG buffer with 1 mM CaCl2 and 1 mM MgCl2).
EPR Measurements. All EPR measurements were performed using a Bruker ER 300 EPR spectrometer operating at X-band with a TM110 cavity as previously described. The microwave frequency was measured with a Model 575 microwave counter (EIP Microwave, Inc., San Jose, Calif.). To measure superoxide anion ? generation from phorbol-ester (PMA)-stimulated PMNs, EPR spin-trapping studies were performed using the spin trap DEPMPO (Oxis, Portland, Oreg.) at 10 mM. 1×10^6 PMNs were stimulated with PMA (1 ng/mL) and loaded into capillary tubes for EPR measurements. To determine the radical scavenging ability of 3 and 9 in aqueous and ethanolic formulations, PMNs were pre-incubated for 5 minutes with test compound, followed by PMA stimulation.
Instrument settings used in the spin-trapping experiments were as follows: modulation amplitude, 0.32 G; time constant, 0.16 s; scan time, 60 s; modulation frequency, 100 kHz; microwave power, 20 milliwatts; and microwave frequency, 9.76 GHz. The samples were placed in a quartz EPR flat cell, and spectra were recorded. The component signals in the spectra were identified and quantified as reported previously.

[2] = Lipid peroxide levels in DLPC multilamellar vesicles, C/P 0.2 (triiodide assay); assay type: biochemical; conditions: for Lipid Peroxide Levels: mean ± S.D.
Protocol: The levels of lipid peroxide formation were measured photometrically at specific time points. […] Samples were prepared in a glass test tube as described in the table above. […] Sample tubes were vortexed for 3 min to form MLVs. This assay is based on the principle of the oxidative capacity of lipid peroxides to convert […], which can be measured photometrically at […] (El-Saadani et al., 1989). […] Samples were placed in a water bath set at 37° C. Samples remained in the water bath throughout the experiment except for the temporary removal for time point extractions. • 2. […] • 3. After combining sample time point aliquots with CHOD active reagent and the diffraction buffer as described in the table above, test samples were incubated about 6 hours in darkness at ambient temperature. • 4. The absorbance ([…] nm) of the samples was measured using a spectrophotometer. • 5. […] This value was determined by adding known concentrations of I2 to the CHOD reagent. A stoichiometric relationship (slope=1.02) was observed between the amount of organic peroxides assayed and the concentration of I3^- produced.

[3] = Peroxidation study in DLPC multilamellar vesicles, C/P 0.6; assay type: biochemical; conditions: C/P 0.6, carotenoid 10 μM, 48 hour
Protocol: 1. Samples were prepared in a glass test tube as described in the table above. This gives a cholesterol/DLPC mole ratio of 0.6 and a final concentration of 10 μM for the carotenoids. Equal volumes of vehicle (20 μl chloroform) were added to control samples. 2. All samples were dried down under a steady stream of nitrogen gas while vortexing. 3. Samples were placed in a vacuum desiccator for 2 hours to remove residual solvent and protected from light. 4. Multi-lamellar vesicles (MLVs) were prepared by the method developed by Bangham and Standish (1965). After samples were removed from the vacuum desiccator, they were immediately resuspended in 1 ml of diffraction buffer warmed to room temperature and vortexed for 3 minutes to form MLVs.
This assay is based on the principle of the oxidative capacity of lipid peroxides to convert I2 to I3^− (triiodide), which can be measured photometrically at 365 nm (el-Saadani et al., 1989). This assay is sensitive to peroxide concentrations as low as 10 μM.
1. Samples were placed in a water bath set at 37° C. throughout the experiment. 2. Aliquots of a sample (20 μl) were extracted at a 48 hour time point as described in the table below.
3. After combining the samples with CHOD active reagent and the diffraction buffer, test samples were incubated for about 6 hours in darkness at ambient temperature. 4. The absorbance of a sample was measured photometrically at 365 nm.
Concentrations of lipid peroxides were calculated by the use of the molar absorptivity of I3^− measured at 365 nm (ε=2.46±0.25×10^4M^−1 cm^−1). This value was determined by adding known concentrations of […] to the CHOD reagent. A stoichiometric relationship (slope=1.02) was observed between the amount of organic peroxides assayed and the concentration of I3^− produced.

[4] = F2-isoprostane formation from DAPC lipid vesicles by GC/NCI-MS; assay type: biochemical
Protocol: F2-Isoprostanes are derived principally from the formation of positioned peroxyl radical isomers of arachidonic acid, endocyclization to protaglandin G2-like structures, and reduction to PGF2-like compounds. Total levels of F2-isoprostanes, in DAPC lipid vesicles prepared in the presence of vehicle or drug, were measured by GC-MS with negative chemical ionization as described by Walter et al., 2000. Peroxidation of lipids occurred over time in the absence of any exogenous initiators at 37° C. F2-Isoprostane formation was also measured independently using mass spectroscopy in a blinded study at the Antioxidant Research Laboratory, Tufts University, Boston, Mass.

[5] = Oxygen Radical Absorption Capacity (ORAC) of human plasma; assay type: biochemical; conditions: 10.0 μM (highest concentration tested); vehicle 28.1±1.2
Protocol: The comparative effect of COX-2 selective agents on the antioxidant capacity of human plasma was assessed using the Oxygen Radical Absorption Capacity (ORAC) assay. This assay was carried out according to the method of Huang et al., 2002 with fresh plasma using a microplate fluorescence reader in 96 well format with the excitation and emission filters set at 485 and 530 nm respectively.

[6] = cited from earlier work
[7] = test system: human LDL; experiment: MDA formation (TBARS) in isolated human LDL; assay type: biochemical; conditions: for MDA level in LDL samples: 1 μM, vehicle 3.23±0.28 μM
Protocol: The effects of the compounds on lipid peroxidation were tested in isolated human LDL. Human venous blood was collected into vacutainer tubes containing K3EDTA after a 12-hour fast. Plasma was immediately separated by centrifugation at 3000 g for 25 minutes. LDL was obtained from plasma by ultracentrifugation using a procedure similar to that reported by Chung et al, 1986 using discontinuous KBr gradient. The purity of the freshly isolated LDL was assessed by SDS-PAGE using the procedure of Laemmli, 1970.
The extent of oxidation was measured for the LDL in the absence and presence of the drugs over a range of concentrations. Malondialdehyde (MDA), a product of lipid oxidation, was measured by the reaction of this aldehyde with thiobarbituric acid in an acid medium to form a stable chromogen, referred to as thiobarbituric-acid-reactive-substances (TBARS). Purified LDL (100 μg protein/ml) was incubated for 30 minutes with either vehicle or an NSAID at various concentrations followed by addition of 50 μM CuSO4 at 37° C. Conjugated diene formation was measured by continuously monitoring the change in absorbance at 234 nm on a Beckman DU 640 spectrophotometer, as described by Esterbauer et al., 1985. Stock solutions were tested for iron contamination, which can contribute independently to lipid peroxidation and assay artifacts.

[8] = 24 Hour, carotenoid 1 μM, control 218 ± 20
[9] = 24 Hour, carotenoid 10 μM, control 218 ± 20
[10] = 48 Hour, carotenoid 1 μM, control 572 ± 76
[11] = 48 Hour, carotenoid 10 μM, control 572 ± 76

Compound: 3,3′-Diphosphoryloxy-β,ε-carotene sodium salt [Lutein Diphosphate Sodium Salt]
- Mean (% inhibition) of superoxide anion signal ([1]; 40% EtOH, 0.1 mM): 18%
- Mean (% inhibition) of superoxide anion signal ([1]; Water, 0.1 mM, listed as disodium diphosphate derivative of natural source lutein, sodium salt): 0%
- Mean (% inhibition) of superoxide anion signal ([1]; Water, 0.1 mM, sodium salt): no inhibition
- Mean (% inhibition) of superoxide anion signal ([1]; Water, 1.0 mM): 9.3%
- Mean (% inhibition) of superoxide anion signal ([1]; Water, 3.0 mM): 72.3%
- Mean (% inhibition) of superoxide anion signal ([1]; Water, 5.0 mM, listed as disodium diphosphate derivative of natural source lutein, sodium salt): more than 90%
- Mean (% inhibition) of superoxide anion signal ([1]; Water, 5.0 mM, sodium salt): 91.0%

Compound: CC1=CC(O)CC(C)(C)C1/C=C/C(C)=C/C=C/C(C)=C/C=C/C=C(C)/C=C/C=C(C)/C=C/C1=C(C)CC(O)CC1(C)C (stereo not drawn) [Lutein, β,ε-carotene-3,3′-diol]
- % increase (+) or decrease (−) of lipid peroxide levels compared to control ([2]; 24 Hour, carotenoid 1 μM): +15.6%^a
- Lipid Peroxide Levels [2, 8]: 252 ± 11 µM
- % increase (+) or decrease (−) of lipid peroxide levels compared to control ([2]; 24 Hour, carotenoid 10 μM): +0.9%^a
- Lipid Peroxide Levels [2, 9]: 220 ± 8 µM
- % increase (+) or decrease (−) of lipid peroxide levels compared to control ([2]; 48 Hour, carotenoid 1 μM): +13.5%^a
- Lipid Peroxide Levels [2, 10]: 649 ± 73 µM
- % increase (+) or decrease (−) of lipid peroxide levels compared to control ([2]; 48 Hour, carotenoid 10 μM): +17.7%^a
- Lipid Peroxide Levels [2, 11]: 673 ± 69 µM

Compound: CC(C)=CCC/C(C)=C/C=C/C(C)=C/C=C/C(C)=C/C=C/C=C(C)/C=C/C=C(C)/C=C/C=C(\C)CCC=C(C)C [Lycopene]
- % increase (+) or decrease (−) of lipid peroxide levels compared to control ([2]; 24 Hour, carotenoid 1 μM): +9.6%^a
- Lipid Peroxide Levels [2, 8]: 239 ± 2 µM
- % increase (+) or decrease (−) of lipid peroxide levels compared to control ([2]; 24 Hour, carotenoid 10 μM): +85.8%^a
- Lipid Peroxide Levels [2, 9]: 405 ± 32 µM
- % increase (+) or decrease (−) of lipid peroxide levels compared to control ([2]; 48 Hour, carotenoid 1 μM): +13.1%^a
- Lipid Peroxide Levels [2, 10]: 647 ± 61 µM
- % increase (+) or decrease (−) of lipid peroxide levels compared to control ([2]; 48 Hour, carotenoid 10 μM): +119.1%^a
- Lipid Peroxide Levels [2, 11]: 1253 ± 55 µM
- antioxidant/prooxidant activity [3]: highest prooxidant activity

Compound: CC1=C(/C=C/C(C)=C/C=C/C(C)=C/C=C/C=C(C)/C=C/C=C(C)/C=C/C2=C(C)C[C@@H](O)CC2(C)C)C(C)(C)C[C@H](O)C1 [Zeaxanthin]
- % increase (+) or decrease (−) of lipid peroxide levels compared to control ([2]; 24 Hour, carotenoid 1 μM): +10.6%^a
- Lipid Peroxide Levels [2, 8]: 241 ± 12 µM
- % increase (+) or decrease (−) of lipid peroxide levels compared to control ([2]; 24 Hour, carotenoid 10 μM): −0.5%^a
- Lipid Peroxide Levels [2, 9]: 217 ± 7 µM
- % increase (+) or decrease (−) of lipid peroxide levels compared to control ([2]; 48 Hour, carotenoid 1 μM): +5.8%^a
- Lipid Peroxide Levels [2, 10]: 605 ± 26 µM
- % increase (+) or decrease (−) of lipid peroxide levels compared to control ([2]; 48 Hour, carotenoid 10 μM): +20.6%^a
- Lipid Peroxide Levels [2, 11]: 690 ± 24 µM

Compound: Cc1ccc(-c2cc(C(F)(F)F)nn2-c2ccc(S(N)(=O)=O)cc2)cc1 [celecoxib]
- effect on peroxidation of arachidonic acid-enriched vesicles ([4]; even at higher concentrations (data not shown)): no significant effect
- ORAC value (AUC) [5]: 28.5±0.1
- maximum plasma concentration (Cmax) ([6]; approved 200 mg dose): 705 ng/mL
- volume of distribution ([6]; in vivo): 400 L
- Cmax ([6]; read-out: maximum plasma concentration (Cmax), approved 200 mg dose): 1850 nM

Compound: CS(C)(=O)=O [dimethyl sulfone]
- MDA level in LDL samples [7]: 3.32 ± 0.19 µM

Compound: Cc1ccc(-c2ncc(Cl)cc2-c2ccc(S(C)(=O)=O)cc2)cn1 [etoricoxib]
- effect on MDA levels (TBARS) in human LDL [7]: marked increases
- Levels of isoprostanes ([4]; 100 nM, vehicle 140±25 ng/100 μl, mean ± S.D.): 224±22 ng/100 μl

Compound: CS(=O)(=O)c1ccccc1 [methyl phenyl sulfone]
- MDA level in LDL samples [7]: 3.25 ± 0.13 µM

Compound: CC1=C(/C=C/C(C)=C/C=C/C(C)=C/C=C/C=C(C)/C=C/C=C(C)/C=C/C2=C(C)CCCC2(C)C)C(C)(C)CCC1 [β-Carotene]
- % increase (+) or decrease (−) of lipid peroxide levels compared to control ([2]; 24 Hour, carotenoid 1 μM): +24.8%^a
- Lipid Peroxide Levels [2, 8]: 272 ± 10 µM
- % increase (+) or decrease (−) of lipid peroxide levels compared to control ([2]; 24 Hour, carotenoid 10 μM): +69.3%^a
- Lipid Peroxide Levels [2, 9]: 369 ± 17 µM
- % increase (+) or decrease (−) of lipid peroxide levels compared to control ([2]; 48 Hour, carotenoid 1 μM): +40.4%^a
- Lipid Peroxide Levels [2, 10]: 803 ± 99 µM
- % increase (+) or decrease (−) of lipid peroxide levels compared to control ([2]; 48 Hour, carotenoid 10 μM): +86.7%^a
- Lipid Peroxide Levels [2, 11]: 1068 ± 82 µM
- antioxidant/prooxidant activity [3]: prooxidant activity
